Earlier results in paper PMC4621754, “Parasitic diarrheal disease: drug development and targets” (Frontiers in Microbiology, 2015).
Where two headings read alike, the source gives them in different places.

Legend:
E. intestinalis = system: E. intestinalis; design: method as in Didier et al., 2006; conditions: in vitro; ref Didier et al., 2006
I. belli = conditions: for cure of I. belli induced diarrhea: ref Trier et al., 1974, Syrkis et al., 1975, Butler and De Boer, 1981, Weiss et al.; for cure of diarrheal disease caused by I. belli: Ebrahimzadeh and Bottone, 1996
microsporidia = system: microsporidia; design: method as in Didier et al., 2005; conditions: ref Didier et al., 2005
[1] = HM1: IMSS strain, ref Wani et al., 2012b
[2] = HM1:IMSS strain, ref Duque-Montaño et al., 2013
[3] = in vitro, ref Torres-Gomez et al., 2008b
[4] = ref Hernández-Nunez et al., 2009
[5] = ref Navarrete-Vazquez et al., 2003
[6] = in vitro, ref Hernández-Nunez et al., 2009

## 1,1^∕-(10,15-diphenyl-21,23-dithiaporphine-5,20-diyl)bis[2-{[methyl(phenylmethyl)amino]methyl}-ferrocene] [Compound 34]
E. histolytica; in vitro, HM1:IMSS strain, ref Bhat et al., 2009b
  IC50: 0.59 µM

## Cc1ccc(/C=C/C(=O)c2ccc(C)cc2)cc1 [Compound 25, (2E)-1,3-bis(4-methylphenyl)prop-2-en-1-one]
E. histolytica; [1]
  IC50: 4.19 µM

## COc1ccc(-c2nnnn2CC(=O)N2N=C(c3ccccc3)CC2c2ccc(OC)cc2)cc1 (stereo not shown) [Compound 26, 1-(4,5-dihydro-5-(4-methoxyphenyl)-3-phenylpyrazol-1-yl)-2-(5-(4-methoxyphenyl)-1H-tetrazol-1-yl)ethanone]
E. histolytica; [1]
  IC50: 1.16 µM

## O=[N+]([O-])c1ccc(S(=O)(=O)Nc2nc(NS(=O)(=O)c3ccc([N+](=O)[O-])cc3)nc(-c3ccc4c(c3)OCO4)n2)cc1 [Compound 27, N, N^∕-6-(1,3-benzodioxol-5-yl)-(1,3,5-triazine-2,4-diyl)-bis-4-nitrobenzene sulphonamide]
E. histolytica; ref Wani et al., 2012a
  IC50: 1.02 µM

## O=S(=O)(Nc1nc(-c2ccccc2)cc(-c2ccccc2Cl)n1)c1ccccc1 [Compound 28, N-[4-(2-chlorophenyl)-6-phenylpyrimidin-2-yl]-benzenesulphonamide]
E. histolytica; in vitro, ref Siddiqui and Azam, 2014
  IC50: 0.44 µM

## COc1ccc(C2ON=C(c3ccc([N+](=O)[O-])s3)O2)cc1 (stereo not shown) [Compound 29, 5-(4-methoxy-phenyl)-3-(5-nitro-2-thienyl)-1,4,2-dioxazole]
E. histolytica; in vitro, ref Irfan et al., 2010
  IC50: 1.6 µM

## Cc1cccc(NC(=S)NN=Cc2ccc(-c3c4nc(c(-c5ccccc5)c5ccc([nH]5)c(-c5ccccc5)c5nc(c(-c6ccccc6)c6ccc3[nH]6)C=C5)C=C4)cc2)c1 [Compound 30, 4-(3-methylphenyl)-1-{[4-(10,15,20-triphenylporphyrin-5-yl)phenyl]methylidene}thiosemicarbazide]
E. histolytica; ref Bhat et al., 2008
  IC50: 0.538 µM

## CC(=NNC(=S)NCc1ccc(C)cc1)c1c(O)ccc2ccc(=O)oc12 [Compound 31, 7-hydroxy-8-acetylcoumarin-N(4,4)methylbenzyl thiosemicarbazone]
E. histolytica; ref Iqbal et al., 2009
  IC50: 1.06 µM

## O=[N+]([O-])c1ccc(NC(=S)N2N=C(c3ccccc3)CC2c2ccc(C3CC(c4ccccc4)=NN3C(=S)Nc3ccc([N+](=O)[O-])cc3)cc2)cc1 (stereo not shown) [Compound 32]
E. histolytica; ref Bhat et al., 2009a
  IC50: 0.42 µM

## CC(C)c1ccccc1C1CC(c2ccccc2)=NN1c1nc2nc3ccccc3nc2s1 (stereo not shown) [Compound 33, 2-{5-[2-(methylethyl)phenyl]-3-phenyl-2-pyrazolinyl}-1,3-thiazolino[5,4-b]quinoxaline]
E. histolytica; HM1:IMSS strain, ref Budakoti et al., 2009
  IC50: 0.17 µM

## COC(=O)c1ccc2c(c1)[n+]([O-])c(C(C)=O)c(C)[n+]2[O-] [Compound 37, methyl 2-acetyl-3-methyl-quinoxaline-7-carboxylate 1,4-di-N-oxide]
E. histolytica; [2]
  IC50: 1.41 µM

## CCOC(=O)c1ccc2c(c1)[n+]([O-])c(C(N)=O)c(C)[n+]2[O-] [Compound 38, ethyl 2-amide-3-methylquinoxaline-7-carboxylate 1,4-di-N-oxide]
E. histolytica; [2]
  IC50: 1.47 µM

## CC(=O)Oc1ccccc1C(=O)Nc1nc2ccc([N+](=O)[O-])cc2s1 [Compound 39, 2-{[(6-Nitro-1,3-benzothiazol-2-yl)amino]carbonyl}phenyl acetate]
E. histolytica; ref Navarrete-Vazquez et al., 2011
  IC50: 0.297 µM
G. intestinalis; in vitro, ref Navarrete-Vazquez et al., 2011
  IC50: 3.52 µM

## COc1ccc(NC(=O)C(N)CCSC(F)(F)F)cc1OC (stereo not shown) [Compound 40, 3,4-dimethoxyanilide trifluoromethionine]
E. histolytica; in vitro, ref Sato et al., 2010
  IC50: 1.19 µM

## COc1ccc2[nH]c(-c3ccc(OCCCCCOc4ccc(-c5nc6cc(OC)ccc6[nH]5)cc4)cc3)nc2c1 [Compound 41, 1,5-bis[4-(5-methoxy-1H-benzimidazole-2-yl)phenoxy]pentane]
E. histolytica; [3]
  IC50: 0.109 µM

## Cc1nc([N+](=O)[O-])cn1CC(=O)NCc1ccccc1 [Compound 42, N-benzyl-2-(2-methyl-4-nitro-1H-imidazol-1-yl)acetamide]
E. histolytica; [4]
  IC50: 3.96 µM

## Cc1ccc(S(=O)(=O)n2cc([N+](=O)[O-])nc2C)cc1 [Compound 43, 2-methyl-1-[(4-methylphenyl)sulfonyl]-4-nitro-1H-imidazole]
E. histolytica; [4]
  IC50: 3.55 µM

## O=[N+]([O-])c1cccc(/C=N/Nc2ccccc2)c1 [Compound 44, (E)-1-(3-nitrobenzylidene)-2-phenylhydrazine]
E. histolytica; in vitro, HM1:IMSS strain, ref Toledano-Magana et al., 2015
  IC50: 0.84 µM

## COc1ccc(Nc2c(C#N)cnc3sccc23)cc1 [Compound 58, 4-(4-methoxyphenylamino)thieno[2,3-b]pyridine-5-carbonitrile]
G. lamblia; ref Bernardino et al., 2006
  giardicidal effect: excellent giardicidal effect

## COc1cc(-c2nc3cc(C)ccc3[nH]2)ccc1OCCCCCOc1ccc(-c2nc3cc(C)ccc3[nH]2)cc1OC [Compound 59, 1,5-bis[2-methoxy-4-(5-methyl-1H-benzimidazole-2-yl)phenoxy] pentane]
G. lamblia; [3]
  IC50: 0.372 µM
G. lamblia; ref Torres-Gomez et al., 2008a
  IC50: 0.372 µM
  folds more potent than metronidazole: 3 folds
  folds more potent than pentamidine: 9 folds
G. lamblia; ref Torres-Gomez et al., 2008b
  fold more activity than metronidazole: 3 fold
  fold more activity than pentamidine: 9 fold

## Cn1c(C(F)(F)F)nc2cc(Cl)ccc21 [Compound 60, 5-chloro-1-methyl-2-(trifluoromethyl)benzimidazole]
G. lamblia; in vitro, ref Gabriel Navarrete-Vaa Zquez et al., 2001
  IC50: 0.042 µM

## COc1ccc(C(=O)/C=C/c2ccccc2F)cc1 [Compound 61, (E)-3-(6-flourophenyl)-1-(4-methoxyphenyl)prop-2-en 1-one]
G. lamblia; ref Montes-Avila et al., 2009
  IC50: 12.7 µM

## CCCSc1ccc2nc(C(F)(F)F)n(C)c2c1 [Compound 63, 1-methyl-6-(propylthio)-2-(trifluoromethyl)-1H-benzimidazole]
G. lamblia; [5]
  IC50: 1.4 µM

## CCCSc1ccc2[nH]c(C(F)(F)F)nc2c1 [Compound 64, 5(6)-(propylthio) -2-(trifluoromethyl)-1H-benzimidazole]
G. lamblia; [5]
  IC50: 1.52 µM

## Cn1c(C(F)(F)F)nc2cc(C(=O)c3ccccc3)ccc21 [Compound 65, 5-benzoyl-1-methyl-2-(trifluoromethyl)-1H-benzimidazole]
G. lamblia; [5]
  IC50: 1.1 µM

## Cn1c(C(F)(F)F)nc2ccc(C(=O)c3ccccc3)cc21 [Compound 66, 6-benzoyl-1-methyl-2-(trifluoromethyl)-1H-benzimidazole]
G. lamblia; [5]
  IC50: 1.28 µM

## COc1cc(NC(c2coc3ccccc3c2=O)c2nnnn2C2CCCCC2)cc(OC)c1OC (stereo not shown) [Compound 67, 3-((1-cyclohexyl-1H-tetrazol-5-yl)((3,4,5-trimethoxyphenyl)amino)methyl)-4H-chromen-4-one]
G. lamblia; ref Cano et al., 2014
  IC50: 171 µM

## COC(=O)Nc1ncc([N+](=O)[O-])s1 [Compound 68, methyl 5-nitro-1,3-thiazol-2-ylcarbamate]
G. intestinalis; ref Nava-Zuazo et al., 2014
  IC50: 0.01 µM

## CCOC(=O)C(=O)Nc1ncc([N+](=O)[O-])s1 [Compound 69, ethyl [(5-nitro-1,3-thiazol-2-yl)amino](oxo)acetate]
G. intestinalis; ref Nava-Zuazo et al., 2014
  IC50: 6.41 µM

## Cc1nc([N+](=O)[O-])cn1CC(=O)Nc1ccc(C#N)cc1 [Compound 72, N-(4-cyanophenyl)-2-(2-methyl-4-nitro-1H-imidazol-1-yl) acetamide]
G. lamblia; [6]
  IC50: 11.2 µM

## Cc1nc([N+](=O)[O-])cn1S(=O)(=O)c1ccc([N+](=O)[O-])cc1 [Compound 73, 2-methyl-4-nitro-1-[(4-nitrophenyl)sulfonyl]-1H-imidazole]
G. lamblia; [6]
  IC50: 7.5 µM

## CO[C@@H]1[C@H](OC(=O)NC(=O)CCl)CC[C@]2(CO2)[C@H]1[C@@]1(C)O[C@@H]1CC=C(C)C [TNP-470]
E. intestinalis
  inhibition of E. intestinalis replication: more than 70%

## O=C1OCCN1/N=C/c1ccc([N+](=O)[O-])o1 [furazolidone, Furazolidone]
I. belli; 1988
  cure of I. belli induced diarrhea: cure the I. belli induced diarrhea but to lesser extent

## CCn1cc(C(=O)O)c(=O)c2cc(F)c(N3CCNCC3)cc21 [norfloxacin]
microsporidia
  antimicrosporidial activity: more than gatifloxacin (6), lomefloxacin (7), moxifloxacin (8), and nalidixic acid (9)

## CO[C@@H]1C(=O)CC[C@]2(CO2)[C@@]1(O)[C@@]1(C)O[C@@H]1CC=C(C)C [ovalicin]
E. intestinalis
  inhibition of E. intestinalis replication: more than 70%

## CCc1nc(N)nc(N)c1-c1ccc(Cl)cc1 [pyrimethamine]
I. belli; ref Ferguson et al., 1980
  cure of diarrheal disease caused by I. belli: cure the diarrheal disease

## CCN(CC)CCCC(C)Nc1c2ccc(Cl)cc2nc2ccc(OC)cc12 (stereo not shown) [quinacrine]
I. belli; 1988
  cure of I. belli induced diarrhea: cure the I. belli induced diarrhea but to lesser extent

## CC[C@H]1OC(=O)[C@H](C)[C@@H](O[C@H]2C[C@@](C)(OC)[C@@H](O)[C@H](C)O2)[C@H](C)[C@@H](O[C@@H]2O[C@H](C)C[C@H](N(C)C)[C@H]2O)[C@](C)(O)C[C@@H](C)/C(=N\OCOCCOC)[C@H](C)[C@@H](O)[C@]1(C)O [roxithromycin]
I. belli; when TMP-SMX or pyrimethamine treatments become inadequate, ref Musey et al., 1988
  efficacy in chronic I. belli induced diarrhea: effective

## Nc1ccc(S(=O)(=O)Nc2ncccn2)cc1 [sulfadiazine]
I. belli; ref Ferguson et al., 1980
  cure of diarrheal disease caused by I. belli: cure the diarrheal disease

## CCS(=O)(=O)CCn1c([N+](=O)[O-])cnc1C [tinidazole]
I. belli; 1988
  cure of I. belli induced diarrhea: cure the I. belli induced diarrhea but to lesser extent

## Ni(Fctpy)2][PF6]2 [Compound 22]
E. histolytica; ref Juneja et al., 2014
  activity against E. histolytica: most promising activity

## cyclosporine A [reference compound]
E. histolytica; ref Carrero et al., 2004
  proliferation of E. histolytica: inhibits proliferation

## sirimamycin
I. belli; when pyrimethamine-sulfadoxine fails, AIDS patients, ref Ferguson et al., 1980
  efficacy in I. belli intestinal infection: effective
